{
  "source": "patent US10383906B2",
  "about": "“Method for treating skin diseases with mangosteen rind extract” (XANTHO BIOTECHNOLOGY CO., LTD, priority 2015, dated 2019)",
  "tested_on": "TNCB-induced atopic dermatitis in mice ears",
  "experiment": "TNCB-induced atopic dermatitis in mice: ear thickness, ear weight, ear appearance, histopathology",
  "format": "in vivo, BALB/c mice",
  "details": "for Pathological slice average inflammation degree (average severity of the pathological changes): mice ears, HE staining, after three weeks of daily test substance, scale Grade 1 minimal to Grade 5 extremely severe",
  "protocol": "The animals used in the experiments were 8-week-old BALB/c mice (purchased from LESCO Biotech), the body weight were 25 to 28 g and were quarantined by veterinarians for one week before entering the breeding room. The animals were divided into 9 groups, 3 in each group, a total of 27 mices. The temperature of the breeding room was set at 21±2° C., the humidity was set at 30 to 70%, and the environment was set for 12/12 hour light-dark cycle with unlimited supply of food and water.\nIn the animal experiments, 2-chloro-1,3,5-trinitrobezene (TNCB) was used to induce atopic dermatitis in mice and acetone was used as the solvent to prepare 1% of TNCB which was applied to mice ears (once every 2 days, the volume was 4 ml/kg) one week prior to testings. […] In addition, for those groups that were simultaneously provided with test ointments and test oral substances, the oral dose was 60 mg/kg and the volume was 10 ml/kg. When TNCB and the test substance were given on the same day, in order to reduce the effect of interactions between each other, TNCB and test substance were given at least 1 hour apart. The mangosteen paste of 0.5%, 1%, 2%, 3%, 5% respectively contained 20 mg/kg, 40 mg/kg, 80 mg/kg, 120 mg/kg and 200 mg/kg of extract of mangosteen rind.\nChanges in body weight and ear thickness of the mice were monitored twice weekly. Blood of all experimental animals were collected before TNCB induction, after the induction and before the test substance was given and when being sacrificed. After the blood was centrifuged at 3000 rpm for 30 minutes at 4° C., serum samples were obtained and stored.\nAll animals were sacrificed at the end of the third week after the test substance was given. Mice ears were removed, photographed and stored in 10% of formalin solution for histopathological observation. HE staining was used for the pathological observation (conducted by the National Laboratory Animal Center).\nData are expressed as means±standard deviation […] and Student's t-test was used to compare the differences among treatment groups. Asterisks indicate significant differences, *p<0.05; **p<0.01; ***p<0.001.",
  "key": {"[1]": {"details": "inner rind versus outer rind extract experiment (4%)"}},
  "data": [
    {"compound": "CC(=O)OCC(=O)[C@@]1(O)CC[C@H]2[C@@H]3CCC4=CC(=O)CC[C@]4(C)[C@H]3[C@@H](O)C[C@@]21C", "note": "[1% Hydrocortisone Acetate, hydrocortisone acetate]", "values": [
      {"measurement": "Inhibition rate, ear thickness", "setting": "degree of swelling of mice ears, compared with the model group, mangosteen paste dose series", "result": 52.7, "unit": "%"},
      {"measurement": "Ear appearance after being sacrificed", "setting": "ears removed at end of experiment (FIG. 4)", "result": "intact ear contour"},
      {"measurement": "Inhibition rate, ear weight", "setting": "ears weighed after sacrifice, compared with the model group, mangosteen paste dose series", "result": 82.4, "unit": "%"},
      {"measurement": "Inhibition rate (%), ear thickness", "setting": "[1]", "result": 50.75, "unit": "%"},
      {"measurement": "Inhibition rate (%), ear weight", "setting": "[1]", "result": 68.91, "unit": "%"},
      {"measurement": "Pathological slice average inflammation degree (average severity of the pathological changes)", "result": "3 ± 0", "unit": "Grade"},
      {"measurement": "Pathological slice average inflammation degree (average severity of the pathological changes)", "setting": "listed as 1% hydrocortisone acetate", "result": 3, "unit": "Grade"}
    ]}
  ]
}
